Drawing on ChEMBL document CHEMBL5665443, “Enzyme Inhibitor Single Concentration assay results for EUbOPEN Chemogenomics Library” (2024), this text covers inhibition for 17 molecules.

What all share (conditions): Compound Concentration 10.0 uM, Hit No
In assay [1] the target is DNA-3-methyladenine glycosylase (Homo sapiens) (UniProt P29372).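 Also: enzyme assay where MPG cuts a quenched duplex DNA oligonucleotide probe, paired with APE1 for strand incision and turnover, read as fluorescence at 594 nm.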
Sequence of DNA-3-methyladenine glycosylase (Homo sapiens) (P29372 whole entry): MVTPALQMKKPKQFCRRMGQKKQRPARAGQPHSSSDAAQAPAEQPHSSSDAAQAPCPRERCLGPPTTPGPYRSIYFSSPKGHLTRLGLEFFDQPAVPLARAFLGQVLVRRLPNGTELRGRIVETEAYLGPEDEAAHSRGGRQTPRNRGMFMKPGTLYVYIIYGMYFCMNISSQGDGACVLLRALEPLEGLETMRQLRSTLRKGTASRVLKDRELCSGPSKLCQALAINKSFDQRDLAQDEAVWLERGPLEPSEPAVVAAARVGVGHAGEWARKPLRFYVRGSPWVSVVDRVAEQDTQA
The target in assay [2] is T1, Adenine DNA glycosylase (Homo sapiens) (UniProt Q9UIF7).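 Also: human MUTYH activity read as 594 nm fluorescence from cleavage and release of a quenched DNA duplex, coupled with APE1 for strand incision, lower signal meaning inhibition.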
T1 sequence (whole entry): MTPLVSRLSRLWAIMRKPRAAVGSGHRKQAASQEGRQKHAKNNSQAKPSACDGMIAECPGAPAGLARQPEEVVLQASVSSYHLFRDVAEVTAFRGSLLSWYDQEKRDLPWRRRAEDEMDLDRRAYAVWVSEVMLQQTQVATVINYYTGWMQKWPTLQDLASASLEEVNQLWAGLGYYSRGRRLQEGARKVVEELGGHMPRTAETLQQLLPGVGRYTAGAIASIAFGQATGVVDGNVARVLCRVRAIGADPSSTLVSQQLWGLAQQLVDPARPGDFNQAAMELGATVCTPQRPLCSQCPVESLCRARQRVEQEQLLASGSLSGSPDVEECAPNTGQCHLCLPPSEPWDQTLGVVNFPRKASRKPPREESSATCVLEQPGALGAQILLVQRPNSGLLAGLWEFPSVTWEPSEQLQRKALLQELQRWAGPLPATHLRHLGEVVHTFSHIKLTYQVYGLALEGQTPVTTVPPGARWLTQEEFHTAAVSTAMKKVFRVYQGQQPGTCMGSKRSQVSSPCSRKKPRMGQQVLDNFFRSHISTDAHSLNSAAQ

For assay [3], the target named is Endonuclease 8-like 1 (Homo sapiens) (UniProt Q96FI4).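 Also: fluorescence at 594 nm from quenched duplex DNA oligonucleotides released by NEIL1 cleavage and strand separation, reported as reduction of this enzyme activity.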
Sequence of Endonuclease 8-like 1 (Homo sapiens) (Q96FI4 whole entry): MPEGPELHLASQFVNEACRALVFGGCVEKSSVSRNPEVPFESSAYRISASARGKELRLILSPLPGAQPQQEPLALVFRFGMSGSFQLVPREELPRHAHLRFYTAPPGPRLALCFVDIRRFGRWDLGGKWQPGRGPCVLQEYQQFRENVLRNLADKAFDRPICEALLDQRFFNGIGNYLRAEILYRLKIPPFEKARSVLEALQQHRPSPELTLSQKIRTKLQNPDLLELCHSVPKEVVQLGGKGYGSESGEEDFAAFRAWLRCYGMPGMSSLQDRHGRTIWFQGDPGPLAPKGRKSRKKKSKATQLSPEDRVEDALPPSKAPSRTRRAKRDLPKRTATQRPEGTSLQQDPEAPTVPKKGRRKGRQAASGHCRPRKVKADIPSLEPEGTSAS
In assay [4] the target is T2, Endonuclease 8-like 2 (Homo sapiens) (UniProt Q969S2).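 Also: fluorescence at 594 nm reports NEIL2 cutting and release of a quenched double-stranded DNA oligo substrate, reduced signal read as inhibition.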
T2 sequence (whole entry): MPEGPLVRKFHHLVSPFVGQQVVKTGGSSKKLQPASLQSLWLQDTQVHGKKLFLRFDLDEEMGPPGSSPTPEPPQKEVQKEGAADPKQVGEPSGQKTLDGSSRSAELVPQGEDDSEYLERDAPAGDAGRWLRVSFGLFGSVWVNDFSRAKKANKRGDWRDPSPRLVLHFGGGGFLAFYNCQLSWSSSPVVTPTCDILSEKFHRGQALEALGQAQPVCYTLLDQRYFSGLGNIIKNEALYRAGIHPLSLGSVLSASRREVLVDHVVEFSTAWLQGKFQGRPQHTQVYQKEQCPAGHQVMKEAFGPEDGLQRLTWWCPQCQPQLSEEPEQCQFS

Assay [5] addresses T3, Endonuclease III-like protein 1 (Homo sapiens) (UniProt P78549).
T3 sequence (whole entry): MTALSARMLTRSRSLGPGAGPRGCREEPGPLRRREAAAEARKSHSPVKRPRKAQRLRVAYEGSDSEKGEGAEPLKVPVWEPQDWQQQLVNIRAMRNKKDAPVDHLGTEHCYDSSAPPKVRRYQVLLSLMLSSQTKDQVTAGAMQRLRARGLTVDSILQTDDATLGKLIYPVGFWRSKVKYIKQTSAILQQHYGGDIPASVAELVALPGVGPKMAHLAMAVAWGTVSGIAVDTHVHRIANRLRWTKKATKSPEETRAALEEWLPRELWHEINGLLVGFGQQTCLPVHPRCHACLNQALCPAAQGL

For assay [6], the target named is N-glycosylase/DNA lyase (Homo sapiens) (UniProt O15527).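 Also: OGG1 cleavage of a quenched duplex DNA oligonucleotide, coupled to APE1 for strand incision, read as fluorescence at 594 nm.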
Sequence of N-glycosylase/DNA lyase (Homo sapiens) (O15527 whole entry): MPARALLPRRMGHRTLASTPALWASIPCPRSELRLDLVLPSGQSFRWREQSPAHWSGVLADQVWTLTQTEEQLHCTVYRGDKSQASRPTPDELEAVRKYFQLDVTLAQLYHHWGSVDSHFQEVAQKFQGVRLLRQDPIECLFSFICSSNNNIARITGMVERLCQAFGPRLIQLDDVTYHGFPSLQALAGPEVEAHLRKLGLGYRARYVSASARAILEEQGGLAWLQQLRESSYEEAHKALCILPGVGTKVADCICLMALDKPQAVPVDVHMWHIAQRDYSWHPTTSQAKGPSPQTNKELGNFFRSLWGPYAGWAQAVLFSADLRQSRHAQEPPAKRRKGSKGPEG
Assay [7] concerns the target G/T mismatch-specific thymine DNA glycosylase (Homo sapiens) (UniProt Q13569).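 Also: human TDG cleavage of quenched duplex DNA oligonucleotides coupled to APE1, strand release read as fluorescence at 594 nm, inhibition of TDG activity.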
Assay [8] addresses Methyl-CpG-binding domain protein 4 (Homo sapiens) (UniProt O95243).
Assay [9] addresses T4, Single-strand selective monofunctional uracil DNA glycosylase (Homo sapiens) (UniProt Q53HV7).
T4 sequence (whole entry): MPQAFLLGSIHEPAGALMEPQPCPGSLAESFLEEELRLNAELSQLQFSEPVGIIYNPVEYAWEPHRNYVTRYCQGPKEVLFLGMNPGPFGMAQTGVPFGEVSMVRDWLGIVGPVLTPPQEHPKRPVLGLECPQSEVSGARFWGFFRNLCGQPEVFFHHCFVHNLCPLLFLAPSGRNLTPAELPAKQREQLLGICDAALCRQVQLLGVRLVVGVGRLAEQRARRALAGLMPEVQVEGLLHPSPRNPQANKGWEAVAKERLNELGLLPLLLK

Assay [10] concerns the target Uracil-DNA glycosylase (Homo sapiens) (UniProt P13051).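 Also: UNG excision on a quenched double-stranded DNA oligo probe, with APE1 added for strand incision and turnover, read as fluorescence at 594 nm as strands separate.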

Sequence of G/T mismatch-specific thymine DNA glycosylase (Homo sapiens) (Q13569 whole entry, the tested form may be a part): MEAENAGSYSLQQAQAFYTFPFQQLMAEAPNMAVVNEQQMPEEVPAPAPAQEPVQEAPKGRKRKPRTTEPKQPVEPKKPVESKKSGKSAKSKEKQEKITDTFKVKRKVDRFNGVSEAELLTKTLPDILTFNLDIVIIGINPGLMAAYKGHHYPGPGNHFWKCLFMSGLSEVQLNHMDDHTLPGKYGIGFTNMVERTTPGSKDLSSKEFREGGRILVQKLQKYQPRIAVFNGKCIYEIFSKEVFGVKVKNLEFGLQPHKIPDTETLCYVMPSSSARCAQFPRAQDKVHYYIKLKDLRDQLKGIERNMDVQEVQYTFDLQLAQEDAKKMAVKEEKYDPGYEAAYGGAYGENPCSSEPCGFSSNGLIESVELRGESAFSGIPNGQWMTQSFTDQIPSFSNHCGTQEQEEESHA
Sequence of Methyl-CpG-binding domain protein 4 (Homo sapiens) (O95243 whole entry, the tested form may be a part): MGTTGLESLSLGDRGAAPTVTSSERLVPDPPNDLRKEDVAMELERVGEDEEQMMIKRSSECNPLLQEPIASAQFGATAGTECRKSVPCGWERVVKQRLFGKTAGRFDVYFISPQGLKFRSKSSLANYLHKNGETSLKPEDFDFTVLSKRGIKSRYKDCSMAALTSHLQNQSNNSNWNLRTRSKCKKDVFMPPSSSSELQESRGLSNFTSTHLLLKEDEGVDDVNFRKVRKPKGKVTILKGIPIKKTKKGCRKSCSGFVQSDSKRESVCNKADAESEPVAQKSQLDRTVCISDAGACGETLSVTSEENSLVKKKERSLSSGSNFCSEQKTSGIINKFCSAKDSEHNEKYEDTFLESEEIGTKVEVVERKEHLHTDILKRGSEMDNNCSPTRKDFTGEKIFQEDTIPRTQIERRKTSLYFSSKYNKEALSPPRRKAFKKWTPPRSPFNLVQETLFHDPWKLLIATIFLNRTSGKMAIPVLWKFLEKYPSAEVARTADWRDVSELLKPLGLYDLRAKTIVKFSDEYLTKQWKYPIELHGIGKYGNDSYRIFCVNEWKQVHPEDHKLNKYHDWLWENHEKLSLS
Sequence of Uracil-DNA glycosylase (Homo sapiens) (P13051 whole entry): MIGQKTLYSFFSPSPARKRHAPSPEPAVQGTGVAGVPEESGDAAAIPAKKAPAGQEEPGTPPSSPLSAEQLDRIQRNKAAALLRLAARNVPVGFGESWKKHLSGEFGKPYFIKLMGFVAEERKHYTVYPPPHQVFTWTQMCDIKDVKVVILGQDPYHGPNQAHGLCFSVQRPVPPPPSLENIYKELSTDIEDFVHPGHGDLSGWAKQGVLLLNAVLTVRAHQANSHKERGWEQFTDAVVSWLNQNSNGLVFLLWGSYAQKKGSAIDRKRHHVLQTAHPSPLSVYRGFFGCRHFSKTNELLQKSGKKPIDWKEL

`C[C@@H](NCCc1ccc(O)cc1)[C@@H](O)c1ccc(O)cc1` (relative stereo): the inhibition in [1] is -3.37%; in assay [2] it was 11.7%; in [3], -5.25%; in [4], 6.25%; in assay [5] it was 17.3%; in assay [6], -4.18%. The inhibition in [7] was 5%.
With `Cc1ccc(O)c([C@H](CCN(C(C)C)C(C)C)c2ccccc2)c1`, the inhibition in assay [1] is -5.07%; in assay [2], 8.6%; in assay [3] it was 5.28%; in assay [4], 2.01%; in [5] it was -3.21%; in assay [6] it was -3.4%. For the same molecule, in assay [7], the inhibition came to 2.93%.
Consider `CC(C1CC2CCC1C2)n1c(S)nnc1-c1ccco1` (stereo not drawn), for which the inhibition is 23.6% in assay [8]; 19.5% in assay [1]; 19.9% in assay [2]; 1.64% in assay [3]; 9.84% in assay [4]; -7.6% in assay [6]. Besides, the inhibition in assay [9] was 13.7%; in [7], 22.6%; in [10], -6.26%.
As to `COc1ccccc1/C=N/NC(=O)COc1ccc(Cl)cc1C`, the inhibition in assay [8] is 18.4%; in assay [1], 9.76%; in [2] it was 10.8%; in assay [3], 8.6%; in [4], -3.15%; in assay [6] it was 2.66%. Also, the inhibition in assay [9] was 14%; in [7], 18.2%; in assay [10], -5.19%.
`COc1ccc(S(=O)(=O)N2c3ccc(Cl)cc3[C@](O)(c3ccccc3Cl)[C@@H]2C(=O)N2CCC[C@H]2C(N)=O)cc1OC`: the inhibition was -7.23% in assay [8]; 8.66% in assay [1]; 28.9% in assay [2]; -2.72% in assay [3]; -0.733% in assay [4]; -5.95% in assay [6]. Besides, the inhibition was -8.03% in assay [9], 10.6% in assay [7] and -8.37% in assay [10].
Regarding `O=C(O)C1CN(Cc2ccc(-c3nc4cc(Cc5ccccc5F)ccc4s3)c(F)c2)C1`, the inhibition in assay [1] is -8.77%; in [2], -0.363%; in assay [3] it was -0.945%; in assay [4], -3.48%; in [5] it was 11.4%; in assay [6] it was -3.25%. Further, the inhibition in assay [7] is -3.37%.
With `COc1cc2nc(N3CCN(C(=O)c4ccco4)CC3)nc(N)c2cc1OC`, the inhibition was 7.24% in [8]; 11.1% in assay [1]; 14% in assay [2]; 5.73% in [3]; 10% in [4]; 0.771% in assay [6]. Moreover, the inhibition was -2.6% in [9], 4.76% in assay [7] and -8.11% in assay [10].
For `Cc1ccccc1C(=O)Nc1ccc(C(=O)N2CCCC(O)c3cc(Cl)ccc32)c(C)c1` (stereo not drawn), the inhibition in assay [8] was -1.3%; in assay [1], 0.836%; in assay [2], 12.2%; in assay [3], 6.76%; in assay [4] it was 1.01%; in assay [6], -1.2%. Also, the inhibition is -8.66% in assay [9], 18.4% in [7] and -8.3% in assay [10].
Take `COc1ccc2[nH]cc(CCNC(C)=O)c2c1`: the inhibition in assay [8] is -1.65%; in assay [1], -3.95%; in [2], 19.4%; in assay [3], 1.13%; in [4] it was 1.51%; in assay [6] it was -4.66%. Also, the inhibition was -7.74% in assay [9], 5.88% in assay [7] and -7.83% in assay [10].
In the case of `Cc1cnc(-c2cc(N3CCN(C(=O)CCS(C)(=O)=O)CC3)ncc2Cl)c(C)c1`, the inhibition is -9.96% in assay [1]; 0.917% in assay [2]; -4.23% in assay [4]; 15.8% in assay [5]; -3.06% in assay [6].
As for `COc1ccc(CNC(=O)c2cc(-c3cncc(Cl)c3)cnc2-c2ccccn2)nc1OC`, the inhibition in assay [8] is 0.324%; in [1] it was -0.668%; in [2], -1%; in assay [3] it was -8.51%; in assay [4], 6.5%; in [6] it was -1.43%. For the same molecule, the inhibition was -1.29% in [9], 11.4% in [7] and -5.71% in [10].
For `Cn1c(SCc2ccc(C(C)(C)C)cc2)nc(N)cc1=O`, the inhibition in assay [8] was 12.4%; in [1] it was 9.09%; in assay [2], 6.33%; in assay [3], -0.435%; in assay [4], 5.25%; in [6] it was -4.44%. The results for the inhibition in [9], in [7] and in assay [10] were -4.37%, 8.05% and -6.37%, respectively.
For `O=C(Nc1ccc(Cl)nc1)c1ccc(Cl)cc1`, the inhibition in assay [8] came to 19.3%; in assay [1], 18.7%; in assay [2], 26.6%; in [3], 6.68%; in assay [4], 5.25%; in [6] it was 6.76%. Also, the inhibition in assay [9] amounted to 3.71%; in assay [7], 21.2%; in assay [10] it was 1.37%.
On to `CCOc1nc2cccc(C(=O)O)c2n1Cc1ccc(-c2ccccc2-c2nnn[nH]2)cc1`, for which the inhibition in assay [8] was 1.2%; in assay [1], -3.68%; in assay [2], 2.84%; in assay [3] it was 2.02%; in assay [4], 7%; in assay [6] it was 0.813%. The inhibition in assay [9] is -0.0333%; in assay [7], 6.47%; in [10] it was -8.46%.
As to `CC(C)NCC(O)COc1ccc(CCOCC2CC2)cc1` (stereo not drawn), the inhibition in assay [8] was 4.74%; in [1], -1.52%; in assay [2], -5.48%; in assay [3], -5.99%; in [4] it was -0.983%; in assay [6] it was -0.494%. In addition, the figures for the inhibition in assay [9], in assay [7] and in [10] were 5.49%, 21.4% and -7.33%, respectively.
For `CC(Cc1ccc(O)c(O)c1)C(C)Cc1ccc(O)c(O)c1` (stereo not drawn), the inhibition in [8] was 58.5%; in [1], 19.4%; in [2] it was 35.6%; in [3], 12.4%; in [4], 0.265%; in assay [6], 28.8%. The inhibition in [9] is -6.33%; in assay [7], 40%; in assay [10] it was 1.91%.
As to `O=C(O)CC/C=C\C[C@@H]1CO[C@H](c2ccccc2Cl)O[C@@H]1c1ccccc1O`, the inhibition in assay [8] was 0.092%; in [1], 4.5%; in [2], 8.47%; in [3], -2.87%; in [4], 0.265%; in assay [6] it was -7.71%. Further, the inhibition in assay [9] was 0.5%; in [7], 13.8%; in assay [10], -7.83%.

In general, inhibition refers to the drop in the measured response relative to a control, in per cent.
